From PubChem BioAssay (NCI) come the findings set out here.

Structures are written as SMILES.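 Dose response: 5 concentrations. Exposure: 48 h. Format: 96-well plates. Endpoint: linear interpolation; highest concentration if not reached. TGI denotes the concentration required for complete inhibition of growth.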 Some results are limits rather than exact numbers.

Among the test systems are UACC-257 melanoma; NCI-H460 lung; M14 melanoma; DLD-1 colon; LXFL 529 NSCLC; XF 498 CNS; NCI-H226 lung; HOP-62 NSCLC; OVCAR-8 ovarian; UACC-62 melanoma; ACHN renal; M19-MEL melanoma.
What all share (assay): NCI tumour cell line growth inhibition, 48 h

Consider `O=C1C2C3C=C4c5ccccc5N(c5ccccc5)C4(C2C(=O)N1c1ccc(Br)cc1)[C@H]1C(=O)N(c2ccc(Br)cc2)C(=O)[C@@H]31` (stereo partly drawn), for which the TGI with UACC-257 melanoma, in the assay on NCI-H460 lung, with M14 melanoma, with DLD-1 colon, with LXFL 529 NSCLC and in the assay on XF 498 CNS was over 100 µM each time. The TGI in the assay with NCI-H226 lung, in the assay with HOP-62 NSCLC, in the assay on OVCAR-8 ovarian and in the assay on UACC-62 melanoma was over 100 µM in each case.
With `S=C=NCCc1ccccc1`, the TGI came out at 3 µM in the assay with ACHN renal; 2.75 µM in the assay on UACC-257 melanoma; 0.765 µM with NCI-H460 lung; 1.94 µM with M14 melanoma; 0.324 µM with DLD-1 colon; 0.774 µM with LXFL 529 NSCLC. Also, the TGI was 2.95 µM with M19-MEL melanoma; 5.35 µM with XF 498 CNS; 2.88 µM in the assay on NCI-H226 lung; 1.35 µM in the assay with HOP-62 NSCLC; 5.57 µM with OVCAR-8 ovarian; 2.52 µM with UACC-62 melanoma.
In the case of `CCOc1ccc(O)cc1[P+](c1ccccc1)(c1ccccc1)c1ccccc1`, the TGI with ACHN renal is 81.7 µM; in the assay on UACC-257 melanoma, 5.9 µM; in the assay with NCI-H460 lung, 14.5 µM; in the assay on M14 melanoma, 16.7 µM; with DLD-1 colon, 17.6 µM; in the assay with LXFL 529 NSCLC, 12.1 µM. Also, the TGI in the assay with M19-MEL melanoma was determined as 15.3 µM; in the assay with XF 498 CNS it was 4.52 µM; in the assay with NCI-H226 lung, 14.5 µM; with HOP-62 NSCLC, 28.9 µM; in the assay on OVCAR-8 ovarian, 15.7 µM; in the assay on UACC-62 melanoma it was 17.8 µM.
Take `COC1OC(C)C2OC(C)(C)OC2C1OC(C)=O` (stereo not drawn): the TGI in the assay on ACHN renal, in the assay with UACC-257 melanoma, with NCI-H460 lung, in the assay with M14 melanoma, with DLD-1 colon and in the assay with LXFL 529 NSCLC was over 100 µM each time. Further, the TGI with M19-MEL melanoma, in the assay with XF 498 CNS, in the assay with NCI-H226 lung, in the assay on HOP-62 NSCLC, with OVCAR-8 ovarian and in the assay with UACC-62 melanoma was over 100 µM in each case.
For `C#CCN(C(=O)C(F)(F)F)c1ccc(C(=O)c2ccc(N(CC#C)C(=O)C(F)(F)F)cc2)cc1`, the TGI was over 100 µM in the assay with ACHN renal; 86.6 µM in the assay on UACC-257 melanoma; over 100 µM with NCI-H460 lung; over 100 µM in the assay on M14 melanoma; over 100 µM in the assay with DLD-1 colon; over 100 µM with LXFL 529 NSCLC. The TGI was over 100 µM in the assay with M19-MEL melanoma, over 100 µM in the assay on HOP-62 NSCLC, over 100 µM in the assay on OVCAR-8 ovarian and 54.1 µM in the assay on UACC-62 melanoma.
For the compound `CC[N+](C)(CC)CC(C)(C)C(=O)/C=C/c1ccc(/C=C/C(=O)C(C)(C)C[N+](C)(CC)CC)cc1`, the TGI with ACHN renal, with UACC-257 melanoma, with NCI-H460 lung, in the assay with M14 melanoma, with DLD-1 colon and in the assay on LXFL 529 NSCLC was over 100 µM in each case. Besides, the TGI in the assay with M19-MEL melanoma, in the assay on NCI-H226 lung, in the assay with HOP-62 NSCLC, in the assay with OVCAR-8 ovarian and in the assay with UACC-62 melanoma was over 100 µM in each case.
As to `CC(=O)NNc1nc(C)c(C(=O)NNC(=O)C(=O)Nc2ccc([N+](=O)[O-])cc2C#N)s1`, the TGI in the assay on ACHN renal, in the assay with UACC-257 melanoma, with NCI-H460 lung, in the assay on M14 melanoma, with LXFL 529 NSCLC and in the assay with M19-MEL melanoma was over 100 µM in each case. In addition, the TGI in the assay on XF 498 CNS, with NCI-H226 lung, with HOP-62 NSCLC, in the assay with OVCAR-8 ovarian and in the assay on UACC-62 melanoma was over 100 µM each time.
Take `CCCCCCCCCCCCCC(=O)CSCCNC(=O)CCNC(=O)[C@@H](O)C(C)(C)COP(=O)(O)OP(=O)(O)OCC1OC(n2cnc3c(N)ncnc32)C(O)C1OP(=O)(O)O` (stereo partly drawn): the TGI was 38 µM in the assay on ACHN renal; 36.1 µM in the assay with UACC-257 melanoma; 79.7 µM in the assay on NCI-H460 lung; 32 µM in the assay on M14 melanoma; 41.1 µM with DLD-1 colon; 32.5 µM in the assay on LXFL 529 NSCLC. The TGI was determined as 35.3 µM in the assay with M19-MEL melanoma; 34.3 µM in the assay with XF 498 CNS; 35.7 µM with NCI-H226 lung; 32.6 µM in the assay on HOP-62 NSCLC; 83.5 µM in the assay on OVCAR-8 ovarian; 29.5 µM in the assay with UACC-62 melanoma.
With `CN(C)CCNC(=O)c1cccc2ccc(-c3ccc(-c4ccccc4)cc3)nc12`, the TGI with ACHN renal was found to be 12.8 µM; with UACC-257 melanoma it was 3.58 µM; in the assay with NCI-H460 lung, 2.98 µM; in the assay with M14 melanoma, 3.48 µM; in the assay with DLD-1 colon, 8.64 µM; with LXFL 529 NSCLC it was 3.39 µM. In addition, the TGI with M19-MEL melanoma was found to be 3.23 µM; with NCI-H226 lung, 30.1 µM; with HOP-62 NSCLC it was 10.3 µM; in the assay with OVCAR-8 ovarian, 7.66 µM; in the assay on UACC-62 melanoma, 32.2 µM.
As for `CC1NC(=O)C2=C1C(N)=NC(=O)C2` (stereo not drawn), the TGI in the assay on ACHN renal, in the assay on UACC-257 melanoma, in the assay with NCI-H460 lung, in the assay with M14 melanoma, in the assay with DLD-1 colon and in the assay with LXFL 529 NSCLC was over 100 µM each time. In addition, the TGI in the assay on M19-MEL melanoma, with XF 498 CNS, with NCI-H226 lung, with OVCAR-8 ovarian and in the assay on UACC-62 melanoma was over 100 µM throughout.
Regarding `O=C(C/C(CCC(=O)N(Cc1ccccc1)Cc1ccccc1)=N/Nc1ccc([N+](=O)[O-])cc1[N+](=O)[O-])c1ccccc1`, the TGI with UACC-257 melanoma, with NCI-H460 lung, with M14 melanoma, in the assay on DLD-1 colon, in the assay on LXFL 529 NSCLC and in the assay with M19-MEL melanoma was over 100 µM in each case. For the same compound, the TGI in the assay on XF 498 CNS, in the assay with NCI-H226 lung, with HOP-62 NSCLC, with OVCAR-8 ovarian and in the assay on UACC-62 melanoma was over 100 µM throughout.
As for `CCN(CC)CCn1[nH]c2c3ccc(=O)cc3sc3c(NCCN)ccc1c32`, the TGI in the assay on ACHN renal is 2.54 µM; in the assay on UACC-257 melanoma, 4.01 µM; in the assay on NCI-H460 lung, 1.25 µM; in the assay with DLD-1 colon, 10.1 µM; in the assay on LXFL 529 NSCLC it was 1.77 µM; in the assay with M19-MEL melanoma, 1.48 µM. The TGI amounted to 0.974 µM in the assay on XF 498 CNS, 2.3 µM in the assay with HOP-62 NSCLC, 12.7 µM in the assay on OVCAR-8 ovarian and 1.48 µM in the assay with UACC-62 melanoma.
